As a reminder, the viability is the share of living cells, or the viability signal relative to a control. Low readings indicate more harm to the cells, high ones less harm to the cells.

Data on 12 compounds can be found in patent US20130137728A1, “Compositions and Methods for the Treatment of Degenerative Diseases” (MUSC Foundation For Research And Development, priority 2010, published 2013).

In data set [1] the test system is 661W cells. The data set can be described thus: Calcium-induced mitochondrial damage assay (IBMX, OCR on Seahorse XF24). It counts as cell-based, mouse. As to conditions: pretreatment with 1 μM for 1 h prior to addition of IBMX. As for the experimental part:
32. FIG. 21. Secondary screening of neuroprotective agents discovered from library screening. The 661W cells were pretreated for 1 h with lead compounds, CB10-CB12 (1 μM), prior to treatment with 600 μM IBMX. The basal and uncoupled OCR rates were measured.
(§1) 257. As shown in FIG. 1 and FIG. 2 below, compounds CB11, CB11a, CB11b, CB11c, CB11d and IBMX (see FIG. 1); compounds CB12, CB12a, CB12b, CB12c, CB12d and IBMX (see FIG. 2) were tested against the calcium-induced mitochondrial damage assay. IBMX is a membrane-permeable inhibitor of β-phosphodiesterase which results in a buildup of cGMP. An excess of cGMP increases the number of cGMP-gated cation channels in an open configuration, allowing an influx of Ca2+ into the cell, leading to mitochondrial damage and eventual cell death.
274. […] A higher stringency for hit selection than is commonly used was performed to avoid the less productive process of filtering through a large number of poor leads. It is notable that the complete ChemBridge library contains over 700,000 molecules that are searchable based on chemical structure, physicochemical properties, etc. To identify the active species present in the initial pool of 12 compounds were screened and then chemical similarity searches on the larger 700,000 member library was performed to identify other molecules that define pharmacophores. This strategy has more efficiently lead to agents that block retinal degeneration. Also, this strategy enabled quick identification of a small number of agents that that were moved into more sophisticated cellular and physiological models so as to better validate the mechanisms. For example, in the high-throughput screen a very toxic, non-specific calcium ionophore assay was used which gives a rather broad readout of cell “viability”. In the secondary assays the specificity and stringency were increased via use of more specific calcium stressor, 3-isobutyl-1-methylxanthine (IBMX) and a more relevant metabolic read-out, loss of respiratory capacity as measured from the attenuation of the uncoupled respiratory rate as measured with the Seahorse instrument. This assay format was used to evaluate the 12 initial lead compounds and are pleased to report that several of these agents do indeed protect against loss in respiratory capacity due to IBMX exposure.

The subject of data set [2] is 661W cells. Briefly: XF24 assay of stressor effects on respiratory capacity (OCR, FCCP response). In kind it is cell-based, mouse. To be noted: for mitochondrial capacity measured from the FCCP response: 30 min after treatment; for respiratory / mitochondrial capacity (FCCP-uncoupled OCR): IBMX 1.0 mM in FIG. 19. As for the experimental part: (§2) 28. FIG. 17. Calcium and oxidative stress attenuate mitochondrial capacity. Shown are 661W cell OCR responses to 1 μM FCCP after treatment with listed concentrations of (A) A23187 and (B) tBuOOH. In A OCR rates are given as pmol/min, in B the rates for each well have been normalized to the basal rates measured prior to FCCP (which standardizes comparisons between data measured on different days). 661W cells analyzed by XF24 were incubated for 24 h and viability determined using ethidium bromide/acridine orange. Images of cells treated with (C) 1 μM A23187 and (D) control represent 47% and >95% viability.
30. FIG. 19. Mild calcium or oxidative stress reduces metabolic capacity in a photoreceptor cell line. (Calcium stress, left panel) 661W cells were treated with vehicle control (dark blue) or 1.0 mM IBMX (turquoise), followed by treatment with 1 μM FCCP. […] (Oxidant stress, right panel)
as §1
268. In preliminary experiments the energy metabolism of 661W cells using the XF24. 661W cells were analyzed and produce large amounts of lactic acid from glucose oxidation [Winkler B S, Starnes C A, Sauer M W, Firouzgan Z, Chen S C: Cultured retinal neuronal cells and Muller cells both show net production of lactate. Neurochem Int 2004, 45(2-3):311-320]. […] To examine whether the metabolic responses were predictive of cell death due to calcium or oxidant stress, the cells were exposed to calcium ionophore A23187 or the oxidant tert-butylhydroperoxide (tBuOOH) on the XF24 instrument for 30 min after which some of the treated cells were exposed to the protonophore FCCP to uncouple the mitochondrial membrane potential. The uncoupling attenuates ATP production and causes the mitochondria to dramatically increase oxygen consumption in an attempt to recover the lost ATP production capacity. The increase in oxygen consumption is a measure of the total mitochondrial capacity or reserve.
271. In preliminary studies, the direct oxidant tert-butylhydroperoxide (tBuOOH) was used to induce oxidant stress and the agent A23187, a calcium ionophore that binds to and carries Ca^2+ across cellular membranes, including mitochondrial membranes (Abbott, B. J., Fukuda, D. S., Dorman, D. E., Occolowitz, J. L., Debono, M., and Farhner, L. (1979) Antimicrob. Agents Chemother. 16(6), 808-812). Because A23187 rapidly increases intracellular and intra-mitochondrial calcium concentrations, it triggers Ca^2+-mediated programmed cell death (2. Orrenius, S., Zhivotovsky, B., and Nicotera, P. (2003) Nat. Rev. Mol. Cell. Biol. 4, 552-565; Hajnóczky, G., Davies, E., and Madesh, M. (2003) Biochem. Biophys. Res. Commun. 304, 445-454). One could argue that these two agents are akin to hammers rather than the more subtle, chronic oxidant and calcium stressors seen in degenerative processes. The XF24 assay was validated using two more physiologically relevant stressors. To induce calcium stress, 3-Isobutyl-1-methyl xanthine (IBMX), a non-selective phosphodiesterase (PDE) inhibitor was used (4. Zhang, X., Feng, Q., and Cote, R. H. (2005) Invest. Ophthalmol. Vis. Sci. 46(9), 3060-3066). Inhibition of PDEs causes increases in the intracellular cAMP and cGMP concentrations leading to slow activation cGMP-gated cation channels and an increase of Ca^2+ flux into the cell (5. Yarfitz, S., and Hurley, J. B. (1994) J. Biol. Chem. 269(20), 14329-14332; Koutalos, Y., and Yau, K.-W. (1996) Trends Neurosci. 19, 73-81). […]

The subject of data set [3] is 661W cells. The data set is described as above. To be noted: 661W cells treated with 1 μM IBMX for 20 min. It counts as cell-based, mouse.
Data set [4] in a line: Viability of stressor-treated cells by dye exclusion 24 h after treatment. It counts as cell-based. To be noted: mouse; 661W cells; 1 μM A23187; incubated 24 h; ethidium bromide/acridine orange. As for the experimental part:
as §2
269. The cells were then returned to the incubator and analyzed for cell viability via dye exclusion 24 h after treatment (FIGS. 17C,D). […] In addition, the higher concentrations produced profound changes in metabolic phenotype as evidenced in the cell's responses to the uncoupler FFCP. […] In both cases, reduced OCR and ECAR values are predictive of cell death although at intermediate concentrations, where cell death is still occurring, the ECAR rates actually increase, particularly for tBuOOH treatments.

Data set [5] relates to 661W cells. The data set can be described thus: A23187 viability screen (MTS assay). It counts as cell-based, mouse. To be noted: 50 μM, 1 μM A23187, 24 hours. An excerpt:
273. ChemBridge, Inc. has a large (>700,000) commercially available chemical library and a DIVERSet library was obtained, which is a subset of compounds selected for diversity and favorable drug-like properties. Because the DIVERSet library is much too large for lower throughput, high-content screens, single end-point assays amenable to high-throughput were developed and disclosed herein. […] A viability assay using treatments with A23187 to search for molecules in the library that protect from acute calcium toxicity was developed and disclosed herein. The concentration of A23187 was selected to give about 50% death and pools that protected against death were identified. The assay format was optimized and validated using calpeptin, a […] as a positive control. In brief, 661W cells were maintained in DMEM supplemented with 10% FBS. For the assay, 100 μL of 70,000 cells/mL cells were seeded into each well of 96 well plates using DMEM supplemented with 5% FBS. Cells were then allowed to grow to confluency for 48 hours. Library compounds were added in 2 μL containing 10 compounds at 20 μM each. Ionophore A23187 was then added in 1 μL for a final concentration of 1 μM and after 24 hours cells were analyzed for viability using the MTS assay according to the manufactures protocol (Promega CellTiter 96® Cat.#G5421). […]

The subject of a further data set is rd1 photoreceptors. The data set can be described thus: rd1 mouse retinal organ culture assay (retina-RPE explants, photoreceptor row count). It counts as cell-based.

Entries after “also recorded” stand apart in the source; their conditions may differ. Non-standard residues stand in square brackets, D forms with d. Residues, ends and D or L forms follow the SMILES beside them. Nle = CCCC[C@H](N)C(=O)O

As to `CC(=O)Nc1cccc(NC(=O)c2sc(-c3cccnc3)nc2C)c1` [CB12c], the “basal and maximal OCR (oxygen consumption rate)” value (“basal and maximal OCR” below) in the data set with 661W cells [1] was “improvement of both basal and maximal OCR”.
With `Cc1nc(-c2cccnc2)sc1C(=O)Nc1ccc(C(N)=O)cc1` [CB12d], the “basal and maximal OCR” value in the data set on 661W cells [1] was “improvement of both basal and maximal OCR”.
With `O=C(CC1(O)C(=O)N(CCc2ccccc2)c2ccccc21)c1cccnc1` (stereo not shown) [CB11b], the “basal and maximal OCR” value in the data set with 661W cells [1] was “improvement of both basal and maximal OCR”.
On to `CC(C)(C)OO` [tBuOOH, tert-butylhydroperoxide], for which the “mitochondrial capacity measured from the FCCP response” value with 661W cells [2] was “significant loss of mitochondrial capacity”.
With `CC(C)Cn1c(=O)n(C)c(=O)c2[nH]cnc21` [IBMX, 3-Isobutyl-1-methyl xanthine], in the data set with 661W cells [2], the “effect on basal respiration rates” value was “little or no direct effect on basal respiration rates” and the “respiratory / mitochondrial capacity (FCCP-uncoupled OCR)” value is reported as “diminished respiratory capacity compared to control; also recorded: same types of loss in mitochondrial capacity”. In the data set with 661W cells [2] (600 μM IBMX), the “basal and uncoupled OCR relative to untreated control” value is “attenuates basal and uncoupled OCR”. In addition, the “decrease in both basal and maximal (FCCP-uncoupled) respiratory capacity” value in the data set with 661W cells [2] (500-600 μM IBMX) was ~50%. Moreover, in the data set on 661W cells [3], the “loss in metabolic capacity as measured from the FCCP response” value is reported as ~50%.
In the case of `CNc1ccc2oc(C[C@H]3O[C@@]4(CC[C@H]3C)O[C@H]([C@H](C)C(=O)c3ccc[nH]3)[C@H](C)C[C@H]4C)nc2c1C(=O)O` [A23187], the “mitochondrial capacity measured from the FCCP response” value in the data set with 661W cells [2] was “significant loss of mitochondrial capacity”. The compound also showed a viability at 24 h, 1 μM in data set [4] of 47%.
With `CCCC[C@@H](C=O)NC(=O)[C@H](CC(C)C)NC(=O)[C@H](CC(C)C)NC(C)=O` [Calpain Inhibitor I] (Ac-Leu-Leu-[Nle]-aldehyde), the “reversal of ionophore A23187 effects on viability” value in the data set with 661W cells [5] is “able to reverse ionophore effects”.
With `CCOC(=O)CN1C(=O)C(O)(CC(=O)c2ccccn2)c2ccccc21` (stereo not shown) [CB11d], the “basal and maximal OCR” value in the data set with 661W cells [1] was “improvement of both basal and maximal OCR”.
`C[n+]1ccc(-c2cc[n+](C)cc2)cc1` [paraquat]: in the data set on 661W cells [2], the “effect on basal respiration rates” value was “little or no direct effect on basal respiration rates” and the “respiratory / mitochondrial capacity (FCCP-uncoupled OCR)” value is recorded as “same types of loss in mitochondrial capacity”.
Take `COC(=O)c1ccccc1NC(=O)c1sc(-c2cccnc2)nc1C` [CB12b]: the “basal and maximal OCR” value with 661W cells [1] is “improvement of both basal and maximal OCR”.
With `CCCC[C@@H](C=O)NC(=O)[C@H](CC(C)C)NC(=O)OCc1ccccc1` [calpeptin], the “rows of photoreceptors (average)” value in the data set on rd1 photoreceptors (rd1 mouse organ cultures exposed to 1 mM from P11 to P21) is listed as 3.3±0.3 rows of photoreceptors. Moreover, the “rows of photoreceptors remaining at P21” value in the data set with rd1 photoreceptors (rd1 retina-RPE sandwich cultures P10 through P21, quantified from images) is given as “about 3.5 rows”.
`O=C(CC1(O)C(=O)N(CCc2ccccc2)c2ccc(Cl)cc21)c1ccccn1` (stereo not shown) [CB11c]: in the data set on 661W cells [1], the “basal and maximal OCR” value is “improvement of both basal and maximal OCR”.
